Values quoted from earlier work, collected in patent US9102697B2, “Trioxacarcins and uses thereof” (President and Fellows of Harvard College, priority 2010, dated 2015).

Key:
murine models = conditions: cited from earlier work
gram-positive = conditions: cited from earlier work
LXFL 529L = conditions: lung cancer cell line LXFL 529L; cited from earlier work
H-460 = conditions: lung cancer cell line H-460; cited from earlier work
MCF-7 = conditions: mammary cancer cell line MCF-7; cited from earlier work
SF-268 = conditions: CNS cancer cell line SF-268; cited from earlier work
[1] = tested on: self-complementary DNA 12-mer d(AATTACGTAATT) (SEQ ID NO: 1); conditions: epoxide opening by N7 of the central guanine residue; cited from earlier work

Compound | anti-tumor activity (murine models) | antibiotic activity (gram-positive) | IC70 (LXFL 529L) | IC70 (H-460) | IC70 (MCF-7) | IC70 (SF-268) | reaction with the oligonucleotide [1]
COc1c2c(c(O)c3c4c(c(C)cc13)C1OC3(C(OC)OC)OC1C(O[C@H]1C[C@@H](O)[C@@](O)(C(C)=O)[C@H](C)O1)(O4)C3(O)CO)C(=O)C(O)CC2O[C@H]1C[C@@](C)(O)[C@H](OC(C)=O)[C@H](C)O1 (some centres unmarked) [Trioxacarcin B] | anti-tumor activity | gram-positive antibiotic activity | – | – | – | – | –
COc1c2c(c(O)c3c4c(c(C)cc13)C1OC3(C(OC)OC)OC1C(OC1CC(O)C(O)(C(C)O)C(C)O1)(O4)C31CO1)C(=O)C(O)CC2OC1COC(C)(OC(C)=O)C(C)(O)C1 (centres unmarked) [Trioxacarcin C] | anti-tumor activity | gram-positive antibiotic activity | – | – | – | – | –
Trioxacarcin A | anti-tumor activity | gram-positive antibiotic activity | subnanmolar | subnanmolar | subnanmolar | subnanmolar | form a covalent complex
